According to EP0812190B1 (priority 1993, dated 1995):
Where two headings read alike, the source gives them in different places.

Assays:
MAO-B [1] = molecular target: T1, MAO-B (Rattus norvegicus, UniProt P19643); conditions: 1 mg/kg i.p. single dose; whole brain
T1 sequence (P19643 1-520): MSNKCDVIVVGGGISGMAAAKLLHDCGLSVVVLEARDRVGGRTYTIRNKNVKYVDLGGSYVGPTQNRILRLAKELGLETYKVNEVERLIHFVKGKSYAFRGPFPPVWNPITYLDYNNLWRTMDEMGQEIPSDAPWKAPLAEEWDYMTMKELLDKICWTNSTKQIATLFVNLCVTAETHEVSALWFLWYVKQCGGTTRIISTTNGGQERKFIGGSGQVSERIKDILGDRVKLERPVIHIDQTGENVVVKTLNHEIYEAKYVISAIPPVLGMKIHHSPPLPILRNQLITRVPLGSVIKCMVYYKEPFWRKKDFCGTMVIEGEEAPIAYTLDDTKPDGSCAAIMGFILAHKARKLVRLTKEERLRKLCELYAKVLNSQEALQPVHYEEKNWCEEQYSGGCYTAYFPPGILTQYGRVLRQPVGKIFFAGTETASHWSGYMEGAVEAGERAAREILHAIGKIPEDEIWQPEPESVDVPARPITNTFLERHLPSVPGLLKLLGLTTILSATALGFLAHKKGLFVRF
Protocol: Activity of MAO-B was determined in whole brain tissues as described hereinabove.

MAO-B [2] = molecular target: T1, MAO-B; experiment: in vivo; conditions: po, read-out: inhibition of brain MAO-B
Protocol: (§1) (+)PAI or the racemic mixture at three dose levels (0.05, 0.1 and 0.5mg/kg) by oral administration, one dose daily for 21 days, and decapitated 2 hours after the last dose.

[3] = test system: amphetamine-induced stereotype behavior; conditions: 0.5 mg/kg/day in drinking water, lateral head movements over 1 minute
Protocol: The extent of this behavior is rated in accordance with the number of lateral head movements over a period of 1 minute.
Following that, amphetamine was injected s.c. at a dose of 0.5 mg/kg. 45 minutes later, lateral head movements were counted.

MAO-A = molecular target: T2, MAO-A (Rattus norvegicus, UniProt P21396); conditions: 21 days
T2 sequence (P21396 1-526): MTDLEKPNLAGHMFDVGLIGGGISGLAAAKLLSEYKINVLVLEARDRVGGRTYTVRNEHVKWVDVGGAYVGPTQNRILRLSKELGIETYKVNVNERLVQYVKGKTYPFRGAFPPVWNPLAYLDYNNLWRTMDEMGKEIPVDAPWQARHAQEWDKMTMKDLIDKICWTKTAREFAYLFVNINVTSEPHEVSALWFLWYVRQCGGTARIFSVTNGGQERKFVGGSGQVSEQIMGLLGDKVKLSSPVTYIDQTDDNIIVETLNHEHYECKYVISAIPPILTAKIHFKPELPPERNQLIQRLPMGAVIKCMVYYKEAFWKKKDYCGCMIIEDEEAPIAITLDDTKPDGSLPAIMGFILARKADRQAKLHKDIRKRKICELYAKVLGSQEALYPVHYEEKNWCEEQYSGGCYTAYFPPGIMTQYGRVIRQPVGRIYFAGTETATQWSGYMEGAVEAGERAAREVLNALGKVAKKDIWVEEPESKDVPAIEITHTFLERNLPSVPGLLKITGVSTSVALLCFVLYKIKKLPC
Protocol: as §1

guinea-pig ileum [4] = conditions: bethanechol 0.8 µM; PAI HCl 20 µM
guinea-pig ileum [5] = test system: guinea-pig ileum
MAO-B [6] = molecular target: T1, MAO-B; experiment: in vivo; conditions: for ED50 / inhibition at 0.5 mg/kg: rat
Protocol: Groups of three rats were used for each dose level of inhibitor, and MAO activity determined in brain and liver using the general technique described above. The amount of protein in each incubation was determined using the Folin-Lowry method, and enzyme activity calculated as nmol of substrate metabolized per hour of incubation for each mg of protein. Activity of MAO in tissues from animals treated with inhibitors was expressed as a percentage of the enzyme activity in a group of control animals administered vehicle (water for oral administration, 0.9% saline for ip injection) and killed as above.

Question: `C#CCN[C@@H]1CCc2ccccc21` [[R](+)PAI, R(+)-N-propargyl-1-aminoindan] was tested. Which “time of maximal inhibition of MAO-B after injection” value (MAO-B [1]) did it give?
Answer: 6 h

Question: What about the inhibition at 0.1 mg/kg (MAO-B [2]) of the same compound?
Answer: > 80%

Question: And the “Stereotype Behavior Rating” value ([3]; control senescent rats, 45 min after amphetamine 0.5 mg/kg s.c.)?
Answer: 126±16

Question: What about the “Stereotype Behavior Rating” value ([3]; hypoxia lesioned senescent rats) of the same compound?
Answer: 143±6

Question: And the “inhibition of brain MAO-A” value (MAO-A; 0.1mg/kg daily oral)?
Answer: ≤ 20%

Question: What about the “inhibition of MAO-A” value (MAO-A; 0.5mg/kg daily oral) of the same compound?
Answer: less than 50%

Question: And the Percent relaxation (guinea-pig ileum [4])?
Answer: 25%

Question: What about the gram-tension (guinea-pig ileum [5]; bethanechol 0.8 µM, 400 µM PAI HCl enantiomer) of the same compound?
Answer: 0.2 gram-tension

Question: What about the gram-tension (guinea-pig ileum [5]; bethanechol 2 µM, 400 µM enantiomer) of the same compound?
Answer: 0.3 gram-tension

Question: What about the gram-tension (guinea-pig ileum [5]; bethanechol 4 µM, 400 µM enantiomer) of the same compound?
Answer: 0.7 gram-tension

Question: What about the gram-tension (guinea-pig ileum [5]; bethanechol 8 µM, 400 µM enantiomer) of the same compound?
Answer: 1.0 gram-tension

Question: What about the gram-tension (guinea-pig ileum [5]; bethanechol 20 µM, 400 µM enantiomer) of the same compound?
Answer: 2.0 gram-tension

Question: What about the gram-tension (guinea-pig ileum [5]; bethanechol 40 µM, 400 µM enantiomer) of the same compound?
Answer: 2.8 gram-tension

Question: And the gram-tension (guinea-pig ileum [5]; bethanechol 80 µM, 400 µM enantiomer)?
Answer: 3.1 gram-tension

Question: What about the gram-tension (guinea-pig ileum [5]; bethanechol 200 µM, 400 µM enantiomer) of the same compound?
Answer: 4.3 gram-tension

Question: And the “inhibition of MAO-B in brain and liver” value (MAO-B [6]; dose of 1mg/kg)?
Answer: complete inhibition

Question: What about the ED50 (MAO-B [6]; ip, 1 h, read-out: IC-50 MAO-B I.P. BRAIN) of the same compound?
Answer: 0.07 mg/kg

Question: What about the ED50 (MAO-B [6]; ip, 1 h, read-out: IC-50 MAO-B I.P. LIVER) of the same compound?
Answer: 0.06 mg/kg

Question: What about the inhibition at 0.5 mg/kg (MAO-B [6]; ip, read-out: inhibition of brain MAO-B activity) of the same compound?
Answer: 90%

Question: What about the ED50 (MAO-B [6]; po, 2 h, read-out: IC-50 MAO-B P.O. BRAIN) of the same compound?
Answer: 0.17 mg/kg

Question: And the ED50 (MAO-B [6]; po, 2 h, read-out: IC-50 MAO-B P.O. LIVER)?
Answer: 0.05 mg/kg

Question: What about the inhibition at 0.5 mg/kg (MAO-B [6]; po, read-out: inhibition of MAO-B) of the same compound?
Answer: 80%
